Results taken from patent US12649750B2, “Macrocyclic compounds, compositions, and methods of using thereof” (Sionna Therapeutics Inc., priority 2022, dated 2026).

Molecular target: T1, NBD1 (Homo sapiens, UniProt P13569)
T1 construct: Purified recombinant NBD1 was produced using previously described methods; made in house
Assay: Aggregation analysis using differential static light scattering (DSLS), thermal stability of NBD1 (ΔTagg)
Format: binding
Conditions: ΔTagg versus DMSO control, NBD1 0.2 mg/ml
Protocol: Example 386. Aggregation Analysis Using Differential Static Light Scattering (DSLS)
Purified recombinant NBD1 was produced using previously described methods (A. Schmidt, J. L. Mendoza, P. J. Thomas (2011) Biochemical and Biophysical Approaches to Probe CFTR Structure (365-376) M. D. Amaral, K. Kunzelmann (eds.), Cystic Fibrosis, Methods in Molecular Biology 741, Springer Science+Business Media). The effect of test compounds on thermal stability of NBD1 was evaluated by differential static light scattering (DSLS) using the Harbinger Stargazer-384 instrument (Epiphyte Three, Toronto, Canada). Test compounds were dissolved and diluted to desired concentrations in 100% DMSO. The compounds or DMSO controls (100 nL) were stamped into wells of a […] low volume optical plate (Corning Inc., Corning, NY) using the Echo 555 acoustic liquid handler (Labcyte Inc., San Jose, CA).
NBD1 protein was diluted to 0.2 mg/ml in S200 buffer (50 mM Tris-HCl, 150 mM NaCl, 5 mM MgCl2, 2 mM ATP, 2 mM DTT, pH7.6) containing 1% glycerol. 10 uL of protein solution was aliquoted into the 384-well plate harboring the test compounds and 10 uL mineral oil was overlaid onto the protein solution, using the epMotion robotic liquid handler (Eppendorf North America, Hauppauge, NY). After placing into the Stargazer instrument, the plate was heated at 1° C. per minute to 70° C. Images were captured from 25° C. to 70° C. every 0.5° C. At the end of the experiment run, instrument software integrated image files and analyzed data automatically. A […] regression curve was generated for each well, representing the increase in light scattering over time. A temperature of aggregation (Tagg) was calculated based on the inflection point of the curve. To better compare data across experiments the average Tagg for DMSO control wells was calculated and subtracted from values for wells containing compounds to obtain a “ΔTagg” value. These ΔTagg values reflect stabilizing efficacy of the compounds. As set forth in Table 2 below, an ΔTagg value less than or equal to 5° C. is marked “A”; a value above 5° C. and less than or equal to 10° C. is marked “B”; a value greater than 10° C. and less than or equal to 25° C. is marked “C”.

T1 sequence (P13569 423-646 limits assumed): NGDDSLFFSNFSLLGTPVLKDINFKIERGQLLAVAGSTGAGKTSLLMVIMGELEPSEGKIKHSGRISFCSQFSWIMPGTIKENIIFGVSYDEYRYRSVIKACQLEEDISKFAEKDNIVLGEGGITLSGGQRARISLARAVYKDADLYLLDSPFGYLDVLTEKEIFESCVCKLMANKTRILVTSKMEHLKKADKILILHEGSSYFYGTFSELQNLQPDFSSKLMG

Compound	DSLS 3D (100 μM ΔT)
C[C@@H](Cc1cccc(C2(C)CCCC(C)(C)CS(=O)(=O)CCc3c(c(F)cc4[nH]ccc34)[S+]([O-])c3ccnc(c3)-c3nc2nn3C)n1)C(=O)O (single isomer, unassigned) [Compound 315C]	A (an ΔTagg value less than or equal to 5 °C is marked “A”)
C[C@@H](Cc1cccc(C2(C)CCCC(C)(C)CS(=O)(=O)CCc3c(c(F)cc4[nH]ccc34)[S+]([O-])c3ccnc(c3)-c3nc2nn3C)n1)C(=O)O (single isomer, unassigned) [Compound 315D]	B (a value above 5 °C and less than or equal to 10 °C is marked “B”)
CC1c2ccnc(c2)-c2nc(nn2C)[C@@](C)(c2cccc(C[C@H](C)C(=O)O)c2)CCCC(C)(C)CS(=O)(=O)CCc2c1c(F)c(F)c1[nH]ccc21 (single isomer, unassigned) [Compound 316A]	B (a value above 5 °C and less than or equal to 10 °C is marked “B”)
CC1c2ccnc(c2)-c2nc(nn2C)[C@@](C)(c2cccc(C[C@H](C)C(=O)O)c2)CCCC(C)(C)CS(=O)(=O)CCc2c1c(F)c(F)c1[nH]ccc21 (single isomer, unassigned) [Compound 316B]	A (an ΔTagg value less than or equal to 5 °C is marked “A”)
CC1c2ccnc(c2)-c2nc(nn2C)[C@@](C)(c2cccc(C[C@@H](C)C(=O)O)c2)CCCC(C)(C)CS(=O)(=O)CCc2c1c(F)c(F)c1[nH]ccc21 (single isomer, unassigned) [Compound 317A]	B (a value above 5 °C and less than or equal to 10 °C is marked “B”)
CC1c2ccnc(c2)-c2nc(nn2C)[C@@](C)(c2cccc(C[C@@H](C)C(=O)O)c2)CCCC(C)(C)CS(=O)(=O)CCc2c1c(F)c(F)c1[nH]ccc21 (single isomer, unassigned) [Compound 317B]	A (an ΔTagg value less than or equal to 5 °C is marked “A”)
CC1c2ccnc(c2)-c2nc(nn2C)[C@@](C)(c2cccc(CC(C)(C)C(=O)O)c2)CCCC(C)(C)CS(=O)(=O)CCc2c1c(F)c(F)c1[nH]ccc21 (single isomer, unassigned) [Compound 318A]	A (an ΔTagg value less than or equal to 5 °C is marked “A”)
CC1c2ccnc(c2)-c2nc(nn2C)[C@@](C)(c2cccc(CC(C)(C)C(=O)O)c2)CCCC(C)(C)CS(=O)(=O)CCc2c1c(F)c(F)c1[nH]ccc21 (single isomer, unassigned) [Compound 318B]	A (an ΔTagg value less than or equal to 5 °C is marked “A”)
C[C@H](Cc1cccc([C@@]2(C)CCCC(C)(C)CS(=O)(=O)CCc3c(c(F)c(F)c4[nH]ccc34)[S+]([O-])c3ccc(F)c(c3)-c3nc2nn3C)c1)C(=O)O (single isomer, unassigned) [Compound 319]	B (a value above 5 °C and less than or equal to 10 °C is marked “B”)
Cn1nc2nc1-c1cc(ccc1F)[S+]([O-])c1c(F)c(F)c3[nH]cc(CC(=O)O)c3c1CCS(=O)(=O)CC(C)(C)CCC[C@]2(C)c1ccccc1 (single isomer, unassigned) [Compound 326]	A (an ΔTagg value less than or equal to 5 °C is marked “A”)
C[C@@H](Cc1cccc([C@@]2(C)CCCC(C)(C)CS(=O)(=O)CCc3c(c(F)cc4[nH]ccc34)[S+]([O-])c3cccc(c3)-c3coc2n3)c1)C(=O)O (single isomer, unassigned) [Compound 330]	A (an ΔTagg value less than or equal to 5 °C is marked “A”)
Cn1nc2nc1-c1cc(ccn1)[S+]([O-])c1c(F)cc3[nH]ccc3c1CCS(=O)(=O)CC(C)(C)CCC[C@]2(C)c1cccc(C[C@H](O)CO)c1 (single isomer, unassigned) [Compound 334]	B (a value above 5 °C and less than or equal to 10 °C is marked “B”)
Cn1nc2nc1-c1cc(ccn1)[S+]([O-])c1c(F)cc3[nH]ccc3c1CCS(=O)(=O)CC(C)(C)CCC[C@]2(C)c1cccc(C[C@@H](O)CO)c1 (single isomer, unassigned) [Compound 337]	A (an ΔTagg value less than or equal to 5 °C is marked “A”)
Cn1nc2nc1-c1cc(ccn1)[S+]([O-])c1c(F)c(F)c3[nH]ccc3c1CCS(=O)(=O)CC(C)(C)CCC[C@]2(C)c1cccc(C[C@H](O)CO)c1 (single isomer, unassigned) [Compound 341]	B (a value above 5 °C and less than or equal to 10 °C is marked “B”)
CNC(=O)[C@H](C)Cc1cccc([C@@]2(C)CCCC(C)(C)CS(=O)(=O)CC(NC)c3c(c(F)c(F)c4[nH]ccc34)Oc3ccc(F)c(c3)-c3nc2nn3C)c1 (single isomer, unassigned) [Compound 360B]	B (a value above 5 °C and less than or equal to 10 °C is marked “B”)
CNC(=O)[C@H](C)Cc1cccc([C@@]2(C)CCCC(C)(C)CS(=O)(=O)CC(NC)c3c(c(F)c(F)c4[nH]ccc34)Oc3ccc(F)c(c3)-c3nc2nn3C)c1 (single isomer, unassigned) [Compound 360C]	A (an ΔTagg value less than or equal to 5 °C is marked “A”)
Cn1nc2nc1-c1cc(ccn1)[S+]([O-])c1c(F)cc3[nH]cc(CC(=O)O)c3c1CCS(=O)(=O)CC(C)(C)CCC[C@]2(C)c1ccccc1 (single isomer, unassigned) [Compound 365]	A (an ΔTagg value less than or equal to 5 °C is marked “A”)
C[C@H](Cc1cccc([C@@]2(C)CCCC(C)(C)CS(=O)(=O)CC(N(C)C)c3c(c(F)c(F)c4[nH]ccc34)Oc3ccc(F)c(c3)-c3nc2nn3C)c1)C(=O)N(C)C (single isomer, unassigned) [Compound 367A]	A (an ΔTagg value less than or equal to 5 °C is marked “A”)
C[C@H](Cc1cccc([C@@]2(C)CCCC(C)(C)CS(=O)(=O)CC(N(C)C)c3c(c(F)c(F)c4[nH]ccc34)Oc3ccc(F)c(c3)-c3nc2nn3C)c1)C(=O)N(C)C (single isomer, unassigned) [Compound 367B]	A (an ΔTagg value less than or equal to 5 °C is marked “A”)
CNC(=O)[C@@H](C)Cc1cccc([C@@]2(C)CCCC(C)(C)CS(=O)(=O)CC(NC)c3c(c(F)cc4[nH]ccc34)Sc3ccc(F)c(c3)-c3nc2nn3C)c1 (single isomer, unassigned) [Compound 368A]	B (a value above 5 °C and less than or equal to 10 °C is marked “B”)
CNC(=O)[C@@H](C)Cc1cccc([C@@]2(C)CCCC(C)(C)CS(=O)(=O)CC(NC)c3c(c(F)cc4[nH]ccc34)Sc3ccc(F)c(c3)-c3nc2nn3C)c1 (single isomer, unassigned) [Compound 368B]	A (an ΔTagg value less than or equal to 5 °C is marked “A”)
CC(=O)NC1CS(=O)(=O)CC(C)(C)CCC[C@](C)(c2cccc(C[C@@H](C)C(=O)O)c2)c2nc(n(C)n2)-c2cc(ccc2F)Oc2c(F)c(F)c3[nH]ccc3c21 (single isomer, unassigned) [Compound 369A]	C (a value greater than 10 °C and less than or equal to 25 °C is marked “C”)
CC(=O)NC1CS(=O)(=O)CC(C)(C)CCC[C@](C)(c2cccc(C[C@@H](C)C(=O)O)c2)c2nc(n(C)n2)-c2cc(ccc2F)Oc2c(F)c(F)c3[nH]ccc3c21 (single isomer, unassigned) [Compound 369B]	B (a value above 5 °C and less than or equal to 10 °C is marked “B”)
C[C@@H](Cc1cccc([C@@]2(C)CCCC(C)(C)CS(=O)(=O)CC(N)c3c(c(F)cc4[nH]ccc34)Sc3ccc(F)c(c3)-c3nc2nn3C)c1)C(N)=O (single isomer, unassigned) [Compound 370A]	B (a value above 5 °C and less than or equal to 10 °C is marked “B”)
